Reference: patent publication US20230126411A1, “DEUTERIUM MAGNETIC RESONANCE IMAGING” (University of Florida Research Foundation, Inc., priority 2020, published 2023)

Legend:
AML12 cells = assay: [2H7]glucose consumption, lactate isotopomer and HDO production in cell media by 1H/2H-NMR; type: cell-based; details: for concentration of consumed [2H7]glucose / produced lactate isotopomers and HDO in cell media: 5.5 mM [2H7]glucose; for number of μmol of 2H: 2H mass balance
Experimental: (§1) HUH-7 or AML12 cell lines were cultured in a complete growth medium made up of Dulbecco's Modified Eagle Medium (DMEM) with 10% v/v FBS, 10,000 units/mL penicillin, 10,000 μg/mL streptomycin, 25 μg/mL amphotericin B and 5.5 mM [^2H7]glucose. Cell lines were maintained at 37° C. in a 5% CO2 in air atmosphere in an air-jacketed incubator (Heracell Vios 160i, Thermo Scientific, Waltham, Mass.). Growth media was replaced every 3 days, and subcultured 1:5 at 80% confluence. 25 cm^2 cell culture plates, containing 15 million HUH-7 or AML12 cells at 70-80% confluence, were washed once with warm PBS and incubated with 4 mL each of DMEM with deuterated tracer for 5h, withdrawing 100 μL aliquots at 20 min, 1h, 2h, and 5h.
(§2) No extraction was performed on the cell media samples. Pyrazine and pyrazine-D4 were mixed to achieve 5 mM concentration of each of the standards in each cell media samples of HUH-7 and AML12 cells. Pyrazine and pyrazine-D4 served as an internal standard to quantify the lactate isotopomers from ^1H-NMR data and HDO as well as residual [^2H7]glucose from ^2H-NMR data respectively. 40 μL of cell medium was transferred into 1.7 mm NMR tubes for NMR analysis. ^1H-NMR Spectroscopy
(§3) All NMR spectra were recorded on a 600.23 MHz NMR, equipped with a 1.7 mm TCI CryoProbe and Avance Neo Console (Bruker Biospin). All NMR experiments were set up in the lock off followed by sweep off mode. ^2H-decoupling off and on ^1H-NMR spectra were acquired with a sequence that alternated decoupling with each scan. Relaxation delay (d1) of 1.5s and acquisition time (AQ) of 2s (3.5s of recycling time, Tr) and a 90° pulse of 10.50 μs was used for acquisition of each of the spectra. The WET method containing selective pulses was applied on the strong water resonance (M o, H. & Raftery, D. J. Biomol. NMR 2008 41:105-111). Waltz16 ^2H-decoupling sequence consists of 90° pulse of 250 μs with decoupling power of 1.72watts, producing B, of 1 kHz during the acquisition period. 13,157 complex data points were acquired with the spectral width of 11 ppm. 128 scans were used to acquire each spectrum. 4 dummy scans were also used for equilibration of the spin states prior to acquisition. A modified T1 inversion recovery pulse sequence with ^2H-decoupling on during the acquisition was used to measure the T1 of the lactate isotopomers and pyrazine standard. Relaxation delay (d1) of 50s and inversion recovery delays (T) of 0.001, 0.6, 0.9, 1.5, 2.0, 3.0, 6.0, 9.0, 14.0, 20.0, 30.0 and 40.0s were used to determine the T1 of lactate isotopomers.
(§4) The deuterium lock channel was used to acquire the ^1H-decoupled ^2H-NMR spectrum at 92.13 MHz resonant frequency. Relaxation delay (d1) of 2s and acquisition time (AQ) of 1s (3s of recycling time, Tr) with a 90° pulse was used to acquire each of the ^2H-NMR spectra. 1086 complex data points were digitized with the spectral width of 11 ppm using 1024 scans for each of the 5 FIDs (5120 scans) for each of the samples. T1 inversion recovery pulse sequence was used to calculate the T1 relaxation times of HDO and pyrazine-D4 standard. Relaxation delay (d1) of 5s, acquisition time (AQ) of 1s and inversion recovery delays (T) of 0.001, 0.1, 0.4, 0.8, 1.6, and 3.2s were used to acquire an array of FIDs to calculate the T1 of HDO and pyrazine-D4. All NMR experiments were carried out at the room temperature (25° C.). ^1H-NMR Data Processing and Quantification of Lactate Isotopomers
(§5) For processing of the ^1H-NMR spectrum, the spectra were zero-filled to 32,768 points with an exponential window function of 0.3 Hz before the Fourier Transform (FT). Manual phase and automatic spline baseline correction were performed on each of the spectra. ^2H-decoupled ^1H-NMR spectra of each time point were used for the extraction of the areas of lactate isotopomers. The MestReNova line fitting tool was used to extract the peak areas of the slightly overlapped signals for quantification of the lactate isotopomers. […]

[1] = tested on: HUH-7 hepatocellular carcinoma cells; assay: as above; type: cell-based; details: for concentration of consumed [2H7]glucose / produced lactate isotopomers and HDO in cell media: 5.5 mM [2H7]glucose; for number of μmol of 2H: 2H mass balance; for rate of production of lactate isotopomer: efflux into medium, linear regression over incubation time
Experimental: as §1, §2, §3, §4, §5

rat brain = assay: Deuterium MR spectroscopy of rat brain and plasma 2H NMR after tail vein infusion of [2H7]glucose
Excerpt: All experimental procedures were approved by the University of Florida Institutional Animal Care and Use Committee. Female Sprague Dawley rats (body weight: ˜220 g) were purchased from Jackson Laboratories and acclimatized in the University's animal care facilities. All rats were in the fed state. The rat was anesthetized with 2% isoflurane in a mixture of O2 and N2 gases. The tail vein was catheterized using a 23-gauge needle for the infusion of [^2H7]glucose tracer. The body temperature of the rat was maintained at 37° C. using a heated circulating water pad. The respiratory rate was monitored during the entire period of the experiment. After shimming the magnet, three baseline ^2H spectra were acquired. Subsequently, a 2 minute tail vain infusion of [^2H7]glucose (1.95 g/kg body weight and dissolved in 2.3 mL saline) was administered. Blood was drawn after the end of spectroscopy and imaging experiments via saphenous vein and blood plasma was separated by centrifugation of the blood at 4° C. for 10 minutes. Circulating blood glucose was assessed by a blood draw and glucometer (Evancare, Medline Industries, Northfield, IL) prior to infusion and 3 hours after the glucose injection.
Animal experiments were performed on an 11.1 T Magnex magnet (Magnex Scientific Ltd.) interfaced to a BrukerAvance Ill HD console running on ParaVision 6.0.1 (Bruker Instruments, Billerica, Mass.). The MRI system was equipped with RRI BFG-240/120-S6 gradient coil with the bore size of 120 mm and capable of producing 100 mT/m with 200 μs rise time. A shim map was generated for localized shimming on rat brain using an 85 mm home-built, actively-decoupled, linear volume ^1H transmit-receive coil. The coil was tuned to the ^1H NMR frequency at 470 MHz. A home-built 14 mm diameter, circular surface coil tuned to 72.26 MHz was used to acquire ^2H spectra and images.
The ^2H coil was placed over the rat head and a 3D printed phantom containing approximately 200 μl of natural abundance water was placed on the top of the coil to confirm positioning. The ^2H RF pulse and flip angle were optimized to maximize the ^2H signals from the rat brain. A partial signal contribution from the natural abundance ^2H of the water phantom was unavoidable but was accounted for by subtraction of the signal areas from runs that followed the glucose injection. […] Spectra were acquired with a 1 kHz width and 256 data points for each free induction decay (FID), a repetition time of 300 ms, and a flip angle of 60° with 256 averages. The total acquisition time for each spectrum was 1.28 minutes. A total of 30 spectra were acquired for a 38-minute time period. Two additional ^2H NMR spectra from the rat brain were acquired at 2 hours and 2.5 hours following [^2H7]glucose infusion. Pyrazine-D4 (2.5 mM, internal standard) was added in each plasma sample to calculate the HDO concentration in plasma. ^2H NMR spectra were collected on Bruker 14 T NMR magnet system equipped with a 1.7 mm TCl CryoProbe and Avance Neo console (Bruker BioSpin). ^2H NMR spectra of plasma samples were acquired at 92.13 MHz resonant frequency with an acquisition time of 1.0 s, relaxation delay of 2 s, and 3072 scans.
^2H NMR data analysis was performed using MestReNova v14.0.1-23284 (Mestrelab Research S. L., Santiago, Spain). For processing of the ^2H NMR, each spectrum was Fourier transformed with an exponential window function of 2.0 Hz, zero-filling of 512 data points and automatic phase correction was also applied. Peak areas were extracted for HDO, [^2H7]glucose including the anomeric signal, deuterated glx (glutamate/glutamine) and lactate from the ^2H NMR spectra of the rat brain. 2D ^1H and ^2H images were processed in the ImageJ software (NIH, Bethesda, Md.).

[2] = T1 inversion recovery NMR of lactate isotopomers, HDO and standards in cell media; type: physicochemical; details: 25° C., cell medium; for deuterium T1 relaxation time: 2H-NMR 92.13 MHz; for proton T1 relaxation time: 1H-NMR 600.23 MHz, 2H-decoupling on
Experimental: as §3, §4
Once the lactate isotopomers were identified, it would be expected to observe differential changes in T1 due to a loss of ^1H dipolar relaxation. T1 inversion recovery experiments were performed in the ^2H-decoupling on mode to calculate the T1 relaxation time of the pyrazine and lactate isotopomers. […] A and B marks on the uppermost spectrum represent the pyrazine standard and methyl signals of the lactate isotopomers respectively. Integral areas of each of the lactate isotopomers and pyrazine standard were extracted to calculate the T1 relaxation times. Data was fit to the standard T1 equation, Mz(t)=M0(1-2*^T/T1), to extract the T1s. […] T1 relaxation time of the HDO and pyrazine-D4 standard were calculated using the inversion recovery ^2H-NMR data (FIG. 10) and found to be 0.49s and 0.45s respectively.

| proton T1 relaxation time [2] [s] | Compound | concentration of consumed [2H7]glucose / produced lactate isotopomers and HDO in cell media (AML12 cells; 5 hour time point) [µmol/L] | number of μmol of 2H (AML12 cells; 5 hour time point) [µmol] | concentration of consumed [2H7]glucose / produced lactate isotopomers and HDO in cell media ([1]; 5 hour time point) [µmol/L] | number of μmol of 2H ([1]; 5 hour time point) [µmol] | rate of production of lactate isotopomer [1] [micromol/10^6 cells/min] | further results |
| --- | --- | --- | --- | --- | --- | --- | --- |
|  | [1,2,3,4,5,6,6-^2H7]-D-glucose [[^2H7]glucose, reference compound] | 586.52 | 4105.60 | 3650.0 | 25550.0 |  | Number of μmol of 2H in 2H-lactate & HDO (AML12 cells; 5 hour time point, sum): 2938.52 µmol; [2H7]glucose uptake and HDO and 2H-lactate production compared to HUH-7 (AML12 cells; qualitative): much lower; 2H atoms of [2H7]glucose incorporated into 2H-lactate and HDO ([1]; 2H mass balance at 5 hour time point): Approximately 96%; Number of μmol of 2H in 2H-lactate & HDO ([1]; 5 hour time point, sum): 24644.9 µmol; cellular [2H7]glucose uptake and HDO production rate compared to AML12 cells ([1]; qualitative, stacked 2H-NMR spectra): very high; fate of the glucose bolus in brain (rat brain; rat, in vivo): almost completely metabolized; time of peak delivery of [2H7]glucose into the brain (rat brain; rat, in vivo): approximately 10 minutes post infusion; final blood glucose concentration (rat brain; rat, 3 hours after injection of 1.95 g/kg [2H7]glucose, n=4): 7.1 ± 1.8 mM |
|  | [2H]O [HDO, hydrogen-deuterium oxide] | 2003.12 | 2003.12 | 18240.0 | 18240.0 |  | final body water HDO enrichment (rat brain; rat blood plasma at end of experiment, n=4): 86.9 ± 5.16 mM; final estimated HDO concentration in brain (rat brain; rat brain, longer time points (2.5 hrs) post-[2H7]glucose infusion, N=3): approximately 48±10 mM; final HDO signal relative to natural abundance signal (rat brain; rat brain, longer time points post-infusion): approximately 3.5 ×; time range of pseudo-steady state of HDO (and HDO plus lactate) to glx ratios (rat brain; rat brain, post-[2H7]glucose infusion): 10 to 24 min; body water enrichment of HDO relative to brain concentration (rat brain; rat, final time point): approximately 1.8 ×; deuterium T1 relaxation time [2]: 0.49 s |
| 1.85 | CC(O)C(=O)O (stereo not drawn) [lactate-CH3] |  |  |  |  | 0.17 |  |
| 2.49 | [2H]CC(O)C(=O)O (stereo not drawn) [Lactate-CH2D] | 229.26 | 229.26 | 1520.0 | 1520.0 | 0.35 |  |
|  | [2H]c1nc([2H])c([2H])nc1[2H] [pyrazine-D4, Pyrazine-D4, reference compound] |  |  |  |  |  | deuterium T1 relaxation time [2]: 0.45 s |
| 6.45 | c1cnccn1 [pyrazine, Pyrazine, reference compound] |  |  |  |  |  |  |
| 4.21 | [2H]C([2H])C(O)C(=O)O (stereo not drawn) [Lactate-CHD2] | 353.07 | 706.14 | 2442.47 | 4884.9 | 0.57 | concentration of lactate-CHD2 relative to the -CH2D isotopomer ([1]; 5 hour time point): 1.6 fold |
